Experimental data as given in the supplement of paper PMC10307832.

How the values were obtained:
Test in all cases: relative viability (nuclei count vs DMSO), 5 days (fraction); higher = more cells survive
kb NB 142-70 + Olaparib = compound: C1CSC2=C(C(=O)N1)SC3=C2C=C(C=C3)O [kb NB 142-70] + O=C(c1cc(Cc2n[nH]c(=O)c3ccccc23)ccc1F)N1CCN(C(=O)C2CC2)CC1 [Olaparib] (partner 8 µM)
Method in brief: (§1)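 A single step with final 0.05% Triton X-100, 1% formaldehyde and 1 ug/ml Hoechst fixed the cells and stained nuclei 5 days after treatment. Lung cancer cell lines in 1536-well plates had been treated by pin tool the day after seeding with one drug alone or a fixed anchor-drug dose plus five library-drug doses (not always all listed) in √10 steps, and nuclei were counted on 4× images. Relative viability is the ratio of nuclei in treated wells to nuclei in vehicle wells, taken as the median of duplicate plates.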

[1] = compound: NCC(=O)Nc1ccc(-n2nc(C(F)(F)F)cc2-c2ccc3c(ccc4ccccc43)c2)cc1 + COc1cc2c(Oc3ccc(NC(=O)C4(C(=O)Nc5ccc(F)cc5)CC4)cc3F)ccnc2cc1OCCCN1CCOCC1 [Foretinib] (partner 0.25 µM)
Method in brief: as §1

[2] = compound: NCC(=O)Nc1ccc(-n2nc(C(F)(F)F)cc2-c2ccc3c(ccc4ccccc43)c2)cc1 + C[C@]1(O)C[C@@H](c2nc(-c3ccc4ccc(-c5ccccc5)nc4c3)c3c(N)nccn32)C1 [Linsitinib] (partner 1 µM)
Method in brief: as §1

[3] = compound: NCC(=O)Nc1ccc(-n2nc(C(F)(F)F)cc2-c2ccc3c(ccc4ccccc43)c2)cc1 + Nc1ncn([C@H]2C[C@H](O)[C@@H](CO)O2)c(=O)n1 [Decitabine] (partner 2 µM)
Method in brief: as §1

Row | Cell Line | relative viability (kb NB 142-70 + Olaparib; first compound 0.1 µM) | relative viability (kb NB 142-70 + Olaparib; first compound 1 µM) | relative viability (kb NB 142-70 + Olaparib; first compound 3.162 µM) | relative viability ([1]; first compound 0.02 µM) | relative viability ([1]; first compound 0.06325 µM) | relative viability ([1]; first compound 0.2 µM) | relative viability ([1]; first compound 0.6325 µM) | relative viability ([1]; first compound 2 µM) | relative viability ([2]; first compound 0.02 µM) | relative viability ([2]; first compound 0.06325 µM) | relative viability ([2]; first compound 0.2 µM) | relative viability ([2]; first compound 0.6325 µM) | relative viability ([2]; first compound 2 µM) | relative viability ([3]; first compound 0.02 µM) | relative viability ([3]; first compound 0.06325 µM) | relative viability ([3]; first compound 0.2 µM) | relative viability ([3]; first compound 0.6325 µM) | relative viability ([3]; first compound 2 µM)
1 | NCI-H23 | 0.314 | 0.318 | 0.241 | 1.05 | 0.998 | 1 | 0.975 | 0.987 | 0.484 | 0.582 | 0.662 | 0.476 | 0.552 | 0.32 | 0.357 | 0.317 | 0.311 | 0.324
2 | NCI-H322M | 0.777 | 0.795 | 0.621 | 1.2 | 0.945 | 0.97 | 0.912 | 1.04 | 1.04 | 0.916 | 0.924 | 0.884 | 0.976 | 0.723 | 0.732 | 0.716 | 0.637 | 0.724
3 | NCI-H358 | 0.531 | 0.489 | 0.297 | 0.755 | 0.721 | 0.747 | 0.683 | 0.816 | 0.807 | 0.8 | 0.72 | 0.868 | 0.737 | 0.217 | 0.211 | 0.224 | 0.206 | 0.217
4 | NCI-H441 | 0.631 | 0.533 | 0.22 | 0.91 | 1.03 | 0.879 | 0.85 | 0.97 | 0.634 | 0.486 | 0.509 | 0.657 | 0.668 | 0.274 | 0.276 | 0.225 | 0.266 | 0.248
5 | NCI-H460 | 0.396 | 0.509 | 0.526 | 1.04 | 1.06 | 1.09 | 0.981 | 1.03 | 0.823 | 0.757 | 0.855 | 0.717 | 0.738 | 0.486 | 0.525 | 0.478 | 0.479 | 0.366
6 | NCI-H520 | 0.377 | 0.35 | 0.228 | 0.852 | 0.831 | 0.677 | 0.725 | 0.917 | 1.02 | 0.904 | 1.07 | 0.91 | 1.13 | 0.562 | 0.546 | 0.505 | 0.449 | 0.587
7 | NCI-H596 | 0.658 | 0.579 | 0.788 | 0.956 | 0.796 | 0.724 | 0.9 | 0.885 | 1.05 | 1.06 | 0.989 | 1.02 | 1.04 | 1.13 | 1.01 | 1.07 | 0.995 | 1.12
8 | NCI-H647 | 0.549 | 0.495 | 0.539 | 1.23 | 1.32 | 1.26 | 1.12 | 1.12 | 1.23 | 1.25 | 1.12 | 1.31 | 0.915 | 0.44 | 0.436 | 0.423 | 0.436 | 0.301
9 | NCI-H650 | 0.417 | 0.374 | 0.267 | 1.04 | 1.07 | 1.02 | 1.01 | 1.09 | 0.638 | 1.01 | 1.02 | 0.862 | 1.08 | 0.34 | 0.295 | 0.443 | 0.315 | 0.367
10 | NCI-H661 | 0.731 | 0.733 | 0.759 | 0.985 | 0.985 | 1.04 | 0.974 | 1.07 | 0.573 | 0.584 | 0.582 | 0.496 | 0.566 | 0.507 | 0.592 | 0.524 | 0.579 | 0.572
11 | NCI-H727 | 0.743 | 0.592 | 0.68 | 0.912 | 0.92 | 1.21 | 1.07 | 1.04 | 0.297 | 0.275 | 0.377 | 0.352 | 0.493 | 0.941 | 0.647 | 0.869 | 0.874 | 0.812
12 | NCI-H838 | 0.73 | 0.787 | 0.739 | 1.1 | 1.02 | 1.12 | 1 | 0.969 | 1.03 | 1.01 | 1.1 | 0.925 | 0.881 | 0.489 | 0.494 | 0.504 | 0.441 | 0.335
13 | NCI-H1355 | 0.818 | 0.744 | 0.775 | 0.954 | 1.03 | 1.04 | 1.02 | 0.981 | 0.769 | 0.855 | 0.849 | 0.867 | 0.82 | 0.371 | 0.362 | 0.403 | 0.408 | 0.347
14 | NCI-H1395 | 0.45 | 0.492 | 0.43 | 1.12 | 1.01 | 1.07 | 1 | 0.981 | 0.997 | 0.986 | 1.15 | 1.06 | 1.18 | 0.667 | 0.735 | 0.673 | 0.692 | 0.738
